Assays:
[1] = system: Abeta 1-42 produced and secreted by SKNBE2 cells expressing hAPP695; assay: Cellular αLisa assay in SKNBE2 cells - Abeta 42; format: cell-based, human; conditions: Homo sapiens, incubated for 18 hours, read-out: Cellular αLisa assay in SKNBE2 cells Abeta 42 pIC50 (converted)
Protocol: (§1) Cellular αLisa Assay in SKNBE2 Cells
(§2) In two αLisa assays the levels of Abeta total and Abeta 1-42 produced and secreted into the medium of human neuroblastoma SKNBE2 cells are quantified. The assay is based on the human neuroblastoma SKNBE2 expressing the wild type Amyloid Precursor Protein (hAPP695). The compounds are diluted and added to these cells, incubated for 18 hours and then measurements of Abeta 1-42 and Abeta total are taken. Abeta total and Abeta 1-42 are measured by sandwich αLisa. αLisa is a sandwich assay using biotinylated antibody AbN/25 attached to streptavidin coated beads and antibody Ab4G8 or cAb42/26 conjugated acceptor beads for the detection of Abeta total and Abeta 1-42 respectively. In the presence of Abeta total or Abeta 1-42, the beads come into close proximity. The excitation of the donor beads provokes the release of singlet oxygen molecules that trigger a cascade of energy transfer in the acceptor beads, resulting in light emission. Light emission is measured after 1 hour incubation (excitation at […] and emission at 615 nm).
(§3) A best-fit curve is fitted by a minimum sum of squares method to the plot of % Controlmin versus compound concentration. From this an IC50 value (inhibitory concentration causing 50% inhibition of activity) can be obtained.

[2] = target: T1, recombinant BACE2 protein (Homo sapiens, UniProt Q9Y5Z0); assay: BACE2 biochemical FRET based assay; conditions: BACE2 0.4 μg/nil, 450 minutes, 10 μM substrate, pH 5.0; read-out: Biochemical FRET based assay pIC50 (BACE2) (converted)
T1 construct: recombinant BACE2 protein in a final concentration of 0.4 μg/nil
T1 sequence (Q9Y5Z0 63-518): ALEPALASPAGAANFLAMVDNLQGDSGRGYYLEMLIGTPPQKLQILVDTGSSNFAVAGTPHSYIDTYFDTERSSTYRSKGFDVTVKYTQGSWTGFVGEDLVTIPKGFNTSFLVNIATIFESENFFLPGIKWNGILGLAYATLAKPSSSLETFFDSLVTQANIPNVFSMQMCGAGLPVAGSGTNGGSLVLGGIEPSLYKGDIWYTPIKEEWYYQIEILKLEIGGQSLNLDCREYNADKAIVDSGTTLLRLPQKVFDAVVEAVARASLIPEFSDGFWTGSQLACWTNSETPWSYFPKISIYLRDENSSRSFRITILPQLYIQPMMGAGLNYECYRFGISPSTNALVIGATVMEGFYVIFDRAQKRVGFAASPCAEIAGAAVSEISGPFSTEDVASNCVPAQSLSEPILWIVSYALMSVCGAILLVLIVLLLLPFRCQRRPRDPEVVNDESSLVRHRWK
Description: BACE2 Biochemical FRET Based Assay
(§4) This assay is a Fluorescence Resonance Energy Transfer Assay (FRET) based assay. The substrate for this assay contains the ‘Swedish’ Lys-Met/Asn-Leu mutation of the amyloid precursor protein (APP) beta-secretase cleavage site. This substrate also contains two fluorophores: (7-methoxycoumarin-4-yl) acetic acid (Mca) is a fluorescent donor with excitation wavelength at 320 nm and emission at 405 nm and 2,4-Dinitrophenyl (Dnp) is a proprietary quencher acceptor. […] Upon cleavage by the beta-secretase, the fluorophore Mca is separated from the quenching group Dnp, restoring the full fluorescence yield of the donor. The increase in fluorescence is linearly related to the rate of proteolysis.
Briefly in a 384-well format recombinant BACE2 protein in a final concentration of […] is incubated for 450 minutes at room temperature with 10 μM substrate in incubation buffer (50 mM Citrate buffer pH 5.0, 0.05% PEG, no DMSO) in the absence or presence of compound. Next the amount of proteolysis is directly measured by fluorescence measurement at T=0 and T=450 (excitation at 320 nm and emission at 405 nm). Results are expressed in RFU (Relative Fluorescence Units), as difference between T450 and T0.
as §3

[3] = system: Abeta total produced and secreted by SKNBE2 cells expressing hAPP695; assay: Cellular αLisa assay in SKNBE2 cells - Abeta total; format: cell-based; conditions: Homo sapiens, incubated for 18 hours, read-out: Cellular αLisa assay in SKNBE2 cells Abeta total pIC50 (converted)
Protocol: as §1, §2, §3

[4] = target: T2, recombinant BACE1 protein (Homo sapiens, UniProt P56817); assay: BACE1 biochemical FRET based assay - Method 2; conditions: BACE1 0.04 μg/ml, 450 minutes, 20 μM substrate, pH 5.0; read-out: Biochemical FRET based assay- Method 2 pIC50 (converted)
T2 construct: recombinant BACE1 protein in a final concentration of 1 μg/ml
T2 sequence (P56817 46-501): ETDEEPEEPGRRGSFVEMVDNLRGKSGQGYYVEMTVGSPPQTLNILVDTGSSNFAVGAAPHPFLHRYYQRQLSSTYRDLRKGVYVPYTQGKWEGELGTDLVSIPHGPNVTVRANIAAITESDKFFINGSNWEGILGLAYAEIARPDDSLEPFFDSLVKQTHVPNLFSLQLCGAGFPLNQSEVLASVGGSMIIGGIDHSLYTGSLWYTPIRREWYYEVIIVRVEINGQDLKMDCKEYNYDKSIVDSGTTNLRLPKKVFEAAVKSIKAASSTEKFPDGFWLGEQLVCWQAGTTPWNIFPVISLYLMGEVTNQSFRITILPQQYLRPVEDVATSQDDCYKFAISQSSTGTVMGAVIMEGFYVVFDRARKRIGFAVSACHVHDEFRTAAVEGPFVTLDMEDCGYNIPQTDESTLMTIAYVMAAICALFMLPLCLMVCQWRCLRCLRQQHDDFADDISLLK
Description: (§5) BACE1 Biochemical FRET Based Assay
as §4, with “this assay is an APP derived 13 amino acids peptide that contains the” for “this assay contains the”, “cleavage by BACE1, the fluorophore” for “cleavage by the beta-secretase, the fluorophore”
Briefly in a 384-well format recombinant BACE1 protein in a final concentration of 0.04 μg/ml is incubated for 450 minutes at room temperature with 20 μM substrate in incubation buffer (50 mM Citrate buffer pH 5.0, 0.05% PEG) in the presence of compound or DMSO. Next the amount of proteolysis is directly measured by fluorescence measurement (excitation at 320 nm and emission at 405 nm) at different incubation times (0, 30, 60, 90, 120 and 450 min). For every experiment a time curve (every 30 min between 0 min and 120 min) is used to determine the time where we find the lowest basal signal of the high control. The signal at this time (Tx) is used to subtract from the signal at 450 min. Results are expressed in RFU, as difference between T450 and Tx.
as §3

[5] = target: T2, recombinant BACE1 protein; assay: BACE1 biochemical FRET based assay - Method 1; conditions: BACE1 1 μg/ml, 120 minutes, 10 μm substrate, pH 5.0; read-out: Biochemical FRET based assay - Method 1 pIC50 (converted)
Description: as §5
as §4, with “this assay is an APP derived 13 amino acids peptide that contains the” for “this assay contains the”, “cleavage by BACE1, the fluorophore” for “cleavage by the beta-secretase, the fluorophore”
Briefly in a 384-well format recombinant BACE1 protein in a final concentration of 1 μg/ml is incubated for 120 minutes at room temperature with 10 μm substrate in incubation buffer (40 mM Citrate buffer pH 5.0, 0.04% PEG, 4% DMSO) in the absence or presence of compound. Next the amount of proteolysis is directly measured by fluorescence measurement at T=0 and T=120 (excitation at 320 nm and emission at 405 nm). Results are expressed in RFU (Relative Fluorescence Units), as difference between T120 and T0.
as §3

IC50 [1] [µM] | IC50 [2] [µM] | melting point [°C] | IC50 [3] [µM] | IC50 [4] [µM] | IC50 [5] [µM] | Compound
0.1 | 0.912 | 240.62 | 0.129 | 0.49 | – | CC1(c2cc(NC(=O)c3ccc(Cl)cn3)ccc2F)N=C(N)CC1C(F)(F)F (racemic) [Compound 15, (±)-N-(3-((2S*,3R*)-5-amino-2-methyl-3-(trifluoromethyl)-3,4-dihydro-2H-pyrrol-2-yl)-4-fluorophenyl)-5-chloropicolinamide]
2.34 | > 10 | 138.66 | 1.95 | > 10 | > 30.2 | COc1cnc(C(=O)Nc2cccc([C@]3(C)C[C@H](C(F)(F)F)CC(N)=N3)c2)cn1 [Compound 4, N-{3-[(2S,4S)-6-amino-2-methyl-4-(trifluoromethyl)-2,3,4,5-tetrahydropyridin-2-yl]phenyl}-5-methoxypyrazine-2-carboxamide]
0.00427 | 0.0257 | 205.8 | 0.0038 | 0.00363 | 0.0363 | C[C@@]1(c2cc(NC(=O)c3ccc(C#N)cn3)ccc2F)C[C@@H](C(F)(F)F)CC(N)=N1 [Compound 10]
0.00759 | 0.0107 | 199.22 | 0.00776 | 0.0155 | 0.0513 | C[C@@]1(c2cc(NC(=O)c3ccc(F)cn3)ccc2F)C[C@@H](C(F)(F)F)CC(N)=N1 [Compound 12]

More lines, now with the values behind:

Compound | IC50 [1] [µM] | IC50 [2] [µM] | melting point [°C] | IC50 [3] [µM] | IC50 [4] [µM] | IC50 [5] [µM]
Cc1nc(C(=O)Nc2ccc(F)c(C3(C)N=C(N)CC3C(F)(F)F)c2)co1 (racemic) [Compound 16, (±)-N-[3-1[(2S*,3R*)-5-amino-2-methyl-3-(trifluoromethyl)-3,4-dihydropyrrol-2-yl]-4-fluoro-phenyl]-2-methyl-oxazole-4-carboxamide] | 0.251 | 0.537 | 207.05 | 0.24 | 1.15 | –
COc1cccnc1Nc1ccc(F)c(C2(C)N=C(N)CC2C(F)(F)F)c1 (racemic) [Compound 21, (+)-N-[3-[(2S*,3R*)-5-amino-2-methyl-3-(trifluoromethyl)-3,4-dihydropyrrol-2-yl]-4-fluoro-phenyl]-3-methoxy-pyridin-2-amine] | 0.389 | 0.933 | 184.2 | – | 2.4 | –
CC1(c2cc(NC(=O)c3ccc(Br)cn3)ccc2F)N=C(N)CC1C(F)(F)F (racemic) [Compound 40, (±)-N-[3-[(2S*,3R*)-5-amino-2-methyl-3-(trifluoromethyl)-3,4-dihydropyrrol-2-yl]-4-fluoro-phenyl]-5-bromo-pyridine-2-carboxamide] | – | – | 243.4 | – | 0.324 | –
COCCOc1cnc(C(=O)Nc2ccc(F)c([C@@]3(C)N=C(N)C[C@H]3C(F)(F)F)c2)cn1 (relative stereo) [Compound 23, (±)-N-[3-[(2S*,3R*)-5-amino-2-methyl-3-(trifluoromethyl)-3,4-dihydropyrrol-2-yl]-4-fluoro-phenyl]-5-(2-methoxyethoxy)pyrazine-2-carboxamide] | 0.347 | > 10 | 165.48 | – | 0.776 | –
COc1cnc(C(=O)Nc2cccc([C@]3(C)C[C@@H](C(F)(F)F)CC(N)=N3)c2)cn1 [Compound 3, N-{3-[(2S,4R)-6-amino-2-methyl-4-(trifluoromethyl)-2,3,4,5-tetrahydropyridin-2-yl]phenyl}-5-methoxypyrazine-2-carboxamide] | 0.00955 | 0.339 | 171.93 | 0.00871 | 0.0251 | 0.0316
C[C@@]1(c2cc(NC(=O)c3ccn(C(F)F)n3)ccc2F)C[C@@H](C(F)(F)F)CC(N)=N1 [Compound 13] | 0.0224 | 0.00309 | 139.83 | 0.024 | 0.00617 | 0.0389
